Results published in US6525001B1, “Substituted pyrimidine and pyridine herbicides” (Mid-American Commercialization Corporation, priority 1997, dated 2003).

What was measured:
Test in all cases: Test B pre-/postemergence
Type in all cases: in vivo
Set-up in all cases: key: 0 is no effect; 10 is complete control
wild oat (Avena fatua) = tested on: wild oat (Avena fatua)
Summary of the method: (§1)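 Response scores run from 0, meaning no effect, to 10, meaning complete control, assigned by eye relative to controls twelve to sixteen days after spraying. Treatment was both preemergence on planted seed and postemergence on plants at the 1- to 4-leaf stage.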

[1] = tested on: momingglory (Ipomoea hederacea)
Summary of the method: as §1

[2] = tested on: giant foxtail (Setaria faberii)
Summary of the method: as §1

[3] = tested on: broadleaf signalgrass (Brachiaria decumbens)
Summary of the method: as §1

[4] = tested on: bedstraw (Galium aparine)
Summary of the method: as §1

[5] = Preemergence, Rate 62 g/ha, scale of 0 to 10

SMILES	Plant response rating, Wild oats (wild oat (Avena fatua); [5])	Wild oats plant response rating (wild oat (Avena fatua); Rate 62 g/ha, Postemergence)	Wild oats plant response rating (wild oat (Avena fatua); Rate 125 g/ha, Postemergence)	Plant response rating, Wild oats (wild oat (Avena fatua); Rate 125 g/ha, Preemergence)	Plant response rating, Wild oats (wild oat (Avena fatua); Rate 250 g/ha, Postemergence)	Plant response rating, Wild oats (wild oat (Avena fatua); Rate 250 g/ha, Preemergence)	Plant response rating, Wild oats (wild oat (Avena fatua); Rate 500 g/ha, Postemergence)	Plant response rating, Wild oats (wild oat (Avena fatua); Rate 500 g/ha, Preemergence)	Morningglory plant response rating ([1]; Rate 125 g/ha, Postemergence)	Plant response rating, Morningglory ([1]; Rate 125 g/ha, Preemergence)	Plant response rating, Morningglory ([1]; Rate 250 g/ha, Preemergence)	Plant response rating, Morningglory ([1]; Rate 500 g/ha, Postemergence)	Plant response rating, Morningglory ([1]; Rate 500 g/ha, Preemergence)	Plant response rating, Giant foxtail [2, 5]	Giant foxtail plant response rating ([2]; Rate 62 g/ha, Postemergence)	Giant foxtail plant response rating ([2]; Rate 125 g/ha, Postemergence)	Plant response rating, Giant foxtail ([2]; Rate 125 g/ha, Preemergence)	Plant response rating, Giant foxtail ([2]; Rate 250 g/ha, Postemergence)	Plant response rating, Giant foxtail ([2]; Rate 250 g/ha, Preemergence)	Plant response rating, Giant foxtail ([2]; Rate 500 g/ha, Postemergence)	further results
Cc1cnc(-c2ccc(C(F)(F)F)cc2)nc1Cn1ccc(C#N)n1 [Compound 53]	0	1	1	0	1	1	2	1	3	2	2	3	5	1	1	1	5	1	6	2	Plant response rating, Morningglory [1, 5]: 1; Plant response rating, Giant foxtail ([2]; Rate 500 g/ha, Preemergence): 6; B. signalgrass plant response rating ([3]; Rate 62 g/ha, Postemergence): 1; B. signalgrass plant response rating ([3]; Rate 62 g/ha, Preemergence): 0; B. signalgrass plant response rating ([3]; Rate 125 g/ha, Postemergence): 1; Plant response rating, B. signalgrass ([3]; Rate 125 g/ha, Preemergence): 1; Plant response rating, B. signalgrass ([3]; Rate 250 g/ha, Postemergence): 2; Plant response rating, B. signalgrass ([3]; Rate 250 g/ha, Preemergence): 2; Plant response rating, B. signalgrass ([3]; Rate 500 g/ha, Postemergence): 2; Plant response rating, B. signalgrass ([3]; Rate 500 g/ha, Preemergence): 6; Plant response rating, Bedstraw [4, 5]: 1; Bedstraw plant response rating ([4]; Rate 62 g/ha, Postemergence): 5; Bedstraw plant response rating ([4]; Rate 125 g/ha, Postemergence): 8; Plant response rating, Bedstraw ([4]; Rate 125 g/ha, Preemergence): 3; Plant response rating, Bedstraw ([4]; Rate 250 g/ha, Postemergence): 10; Plant response rating, Bedstraw ([4]; Rate 250 g/ha, Preemergence): 7; Plant response rating, Bedstraw ([4]; Rate 500 g/ha, Postemergence): 10; Plant response rating, Bedstraw ([4]; Rate 500 g/ha, Preemergence): 8
Cc1cnc(-c2ccc(C(F)(F)F)cc2)nc1Cn1cc(Br)cn1 [Compound 54]	0	1	2	1	3	3	3	4	3	1	2	10	2	1	2	3	1	4	8	4	Plant response rating, Morningglory [1, 5]: 0; Morningglory plant response rating ([1]; Rate 62 g/ha, Postemergence): 2; Plant response rating, Morningglory ([1]; Rate 250 g/ha, Postemergence): 3; Plant response rating, Giant foxtail ([2]; Rate 500 g/ha, Preemergence): 10; B. signalgrass plant response rating ([3]; Rate 62 g/ha, Postemergence): 3; B. signalgrass plant response rating ([3]; Rate 62 g/ha, Preemergence): 0; B. signalgrass plant response rating ([3]; Rate 125 g/ha, Postemergence): 3; Plant response rating, B. signalgrass ([3]; Rate 125 g/ha, Preemergence): 1; Plant response rating, B. signalgrass ([3]; Rate 250 g/ha, Postemergence): 4; Plant response rating, B. signalgrass ([3]; Rate 250 g/ha, Preemergence): 3; Plant response rating, B. signalgrass ([3]; Rate 500 g/ha, Postemergence): 5; Plant response rating, B. signalgrass ([3]; Rate 500 g/ha, Preemergence): 6; Plant response rating, Bedstraw [4, 5]: 0; Bedstraw plant response rating ([4]; Rate 62 g/ha, Postemergence): 3; Bedstraw plant response rating ([4]; Rate 125 g/ha, Postemergence): 4; Plant response rating, Bedstraw ([4]; Rate 125 g/ha, Preemergence): 0; Plant response rating, Bedstraw ([4]; Rate 250 g/ha, Postemergence): 7; Plant response rating, Bedstraw ([4]; Rate 250 g/ha, Preemergence): 1; Plant response rating, Bedstraw ([4]; Rate 500 g/ha, Postemergence): 9; Plant response rating, Bedstraw ([4]; Rate 500 g/ha, Preemergence): 4
Cc1cnc(-n2cnc(C(F)(F)F)c2)nc1C(=O)c1cccc(C(F)(F)F)c1 [Compound 61]	4	3	3	5	3	7	5	8	9	3	10	9	10	8	2	4	9	5	10	9	Morningglory plant response rating ([1]; Rate 62 g/ha, Postemergence): 5; Plant response rating, Giant foxtail ([2]; Rate 500 g/ha, Preemergence): 10; B. signalgrass plant response rating ([3]; Rate 62 g/ha, Postemergence): 3; B. signalgrass plant response rating ([3]; Rate 62 g/ha, Preemergence): 5; B. signalgrass plant response rating ([3]; Rate 125 g/ha, Postemergence): 4; Plant response rating, B. signalgrass ([3]; Rate 125 g/ha, Preemergence): 7; Plant response rating, B. signalgrass ([3]; Rate 250 g/ha, Postemergence): 4; Plant response rating, B. signalgrass ([3]; Rate 250 g/ha, Preemergence): 8; Plant response rating, B. signalgrass ([3]; Rate 500 g/ha, Postemergence): 5; Plant response rating, B. signalgrass ([3]; Rate 500 g/ha, Preemergence): 9; Plant response rating, Bedstraw [4, 5]: 3; Bedstraw plant response rating ([4]; Rate 62 g/ha, Postemergence): 8; Bedstraw plant response rating ([4]; Rate 125 g/ha, Postemergence): 8; Plant response rating, Bedstraw ([4]; Rate 125 g/ha, Preemergence): 4; Plant response rating, Bedstraw ([4]; Rate 250 g/ha, Postemergence): 9; Plant response rating, Bedstraw ([4]; Rate 250 g/ha, Preemergence): 6; Plant response rating, Bedstraw ([4]; Rate 500 g/ha, Postemergence): 9; Plant response rating, Bedstraw ([4]; Rate 500 g/ha, Preemergence): 9
Cc1cnc(-n2ccc(C(F)(F)C(F)(F)F)n2)nc1C(=O)c1cccc(OC(F)(F)F)c1 [Compound 62]	1	1	1	3	1	4	3	4	4	2	4	10	7	1	1	2	2	2	4	3	Plant response rating, Morningglory [1, 5]: 1; Morningglory plant response rating ([1]; Rate 62 g/ha, Postemergence): 3; Plant response rating, Morningglory ([1]; Rate 250 g/ha, Postemergence): 9; Plant response rating, Giant foxtail ([2]; Rate 500 g/ha, Preemergence): 4; B. signalgrass plant response rating ([3]; Rate 62 g/ha, Postemergence): 2; B. signalgrass plant response rating ([3]; Rate 62 g/ha, Preemergence): 4; B. signalgrass plant response rating ([3]; Rate 125 g/ha, Postemergence): 2; Plant response rating, B. signalgrass ([3]; Rate 125 g/ha, Preemergence): 4; Plant response rating, B. signalgrass ([3]; Rate 250 g/ha, Postemergence): 2; Plant response rating, B. signalgrass ([3]; Rate 250 g/ha, Preemergence): 8; Plant response rating, B. signalgrass ([3]; Rate 500 g/ha, Postemergence): 3; Plant response rating, B. signalgrass ([3]; Rate 500 g/ha, Preemergence): 9; Plant response rating, Bedstraw [4, 5]: 0; Bedstraw plant response rating ([4]; Rate 62 g/ha, Postemergence): 3; Bedstraw plant response rating ([4]; Rate 125 g/ha, Postemergence): 3; Plant response rating, Bedstraw ([4]; Rate 125 g/ha, Preemergence): 1; Plant response rating, Bedstraw ([4]; Rate 250 g/ha, Postemergence): 3; Plant response rating, Bedstraw ([4]; Rate 250 g/ha, Preemergence): 2; Plant response rating, Bedstraw ([4]; Rate 500 g/ha, Postemergence): 4; Plant response rating, Bedstraw ([4]; Rate 500 g/ha, Preemergence): 6
Cc1cnc(-n2cnc(C(F)(F)F)c2)nc1C(=O)c1cccc(OC(F)(F)F)c1 [Compound 63]	3	3	2	3	2	5	2	8	4	7	10	10	10	2	2	2	3	3	6	3	Plant response rating, Morningglory [1, 5]: 2; Morningglory plant response rating ([1]; Rate 62 g/ha, Postemergence): 2; Plant response rating, Morningglory ([1]; Rate 250 g/ha, Postemergence): 10; Plant response rating, Giant foxtail ([2]; Rate 500 g/ha, Preemergence): 8; B. signalgrass plant response rating ([3]; Rate 62 g/ha, Postemergence): 4; B. signalgrass plant response rating ([3]; Rate 62 g/ha, Preemergence): 4; B. signalgrass plant response rating ([3]; Rate 125 g/ha, Postemergence): 3; Plant response rating, B. signalgrass ([3]; Rate 125 g/ha, Preemergence): 7; Plant response rating, B. signalgrass ([3]; Rate 250 g/ha, Postemergence): 4; Plant response rating, B. signalgrass ([3]; Rate 250 g/ha, Preemergence): 8; Plant response rating, B. signalgrass ([3]; Rate 500 g/ha, Postemergence): 5; Plant response rating, B. signalgrass ([3]; Rate 500 g/ha, Preemergence): 9; Plant response rating, Bedstraw [4, 5]: 2; Bedstraw plant response rating ([4]; Rate 62 g/ha, Postemergence): 2; Bedstraw plant response rating ([4]; Rate 125 g/ha, Postemergence): 2; Plant response rating, Bedstraw ([4]; Rate 125 g/ha, Preemergence): 4; Plant response rating, Bedstraw ([4]; Rate 250 g/ha, Postemergence): 5; Plant response rating, Bedstraw ([4]; Rate 250 g/ha, Preemergence): 4; Plant response rating, Bedstraw ([4]; Rate 500 g/ha, Postemergence): 8; Plant response rating, Bedstraw ([4]; Rate 500 g/ha, Preemergence): 8
